Measured values from patent US10544140B2, “Pharmaceutical composition containing, as active ingredient, 7-azaindolin-2-one derivative or pharmaceutically acceptable salt thereof” (LG CHEM, LTD., priority 2015, dated 2020).

Columns and labels:
[1] = tested on: MCF-7 (human breast cancer cell line); assay: Cytotoxicity test by MTT assay, MCF-7; assay type: cell-based; details: for IC50 / cytotoxicity at 30 µM: Homo sapiens, MCF7; for IC50: MCF-7, 48 h; for cytotoxicity compared with the reference drug sunitinib: MCF-7; for cytotoxicity at 30 µM: MCF-7, 30 μM, 48 h, read-out: Cell viability (% inhibition)
Description: (§1) A cytotoxicity test was measured by MTT assay. Each cell line was cultured in a 96-well plate at a density of 1×10^4 cells/well. […] MTT (3-(4,5-dimethylthiazol-2-yl)-2,5-diphenyltetrazolium bromide) solution (5 mg/mL) was added to each well and reacted for 4 hours in an incubator. […] After reacting in an incubator for 30 minutes, the formation of formazan was quantified using a microplate reader at an absorbance of 540 nm. […] At this time, sunitinib was used as a control group. […] The human cancer cell lines used herein are MCF-7 (breast cancer), MDA-MB-231 (breast cancer), HT-29 (colon cancer), DU145 (prostate cancer), U937 (myeloid leukemia), A549 (lung cancer), PANC-1 (pancreatic cancer) and MIA PaCa-2 (pancreatic cancer).

[2] = tested on: PANC-1 (human pancreatic cancer cell line); assay: Cytotoxicity test by MTT assay, PANC-1; assay type: cell-based; details: for IC50 / cytotoxicity at 30 µM: Homo sapiens; for IC50: PANC-1, 48 h; for cytotoxicity at 30 µM: PANC-1, 30 μM, 48 h, read-out: Cell viability (% inhibition)
Description: as §1

[3] = tested on: MDA-MB-231 (breast cancer); assay: Cytotoxicity test by MTT assay, MDA-MB-231; assay type: cell-based, human; details: for IC50: Homo sapiens, MBA-MB-231, 48 h
Description: (§2) A cytotoxicity test was measured by MTT assay. Each cell line was cultured in a 96-well plate at a density of 1×10^4 cells/well. After 24 hours, the culture medium containing 1% FBS (fetal bovine serum) was treated and reacted with compounds or solutions of compounds for 48 hours. MTT (3-(4,5-dimethylthiazol-2-yl)-2,5-diphenyltetrazolium bromide) solution (5 mg/mL) was added to each well and reacted for 4 hours in an incubator. […] After reacting in an incubator for 30 minutes, the formation of formazan was quantified using a microplate reader at an absorbance of 540 nm. […] The human cancer cell lines used herein are MCF-7 (breast cancer), MDA-MB-231 (breast cancer), HT-29 (colon cancer), DU145 (prostate cancer), U937 (myeloid leukemia), A549 (lung cancer), PANC-1 (pancreatic cancer) and MIA PaCa-2 (pancreatic cancer).

[4] = tested on: HT-29 (colon cancer); assay: Cytotoxicity test by MTT assay, HT-29; assay type: cell-based, human; details: for cytotoxicity compared with the reference drug sunitinib: HT-29; for IC50: Homo sapiens, HT-29, 48 h
Description: as §2

[5] = tested on: DU145 (prostate cancer); assay: Cytotoxicity test by MTT assay, DU145; assay type: cell-based, human; details: DU-145; for IC50: Homo sapiens, DU145, 48 h
Description: as §2

[6] = tested on: A549 (lung cancer); assay: Cytotoxicity test by MTT assay, A549; assay type: cell-based, human; details: for cytotoxicity compared with the reference drug sunitinib: A-549; for IC50: Homo sapiens, A549, 48 h
Description: as §2

[7] = tested on: MIA PaCa-2 (pancreatic cancer); assay: Cytotoxicity test by MTT assay, MIA PaCa-2; assay type: cell-based, human; details: for IC50: Homo sapiens, MIA PaCa-2, 48 h
Description: as §2

[8] = Cytotoxicity test by MTT assay, HEK293 normal cell line; assay type: cell-based; details: human, HEK293 cells (normal cell line)
Description: (§3) A cytotoxicity test was measured by MTT assay. Each cell line was cultured in a 96-well plate at a density of 1×10^4 cells/well. After 24 hours, the culture medium containing 1% FBS (fetal bovine serum) was treated and reacted with compounds or solutions of compounds for 48 hours. MTT (3-(4,5-dimethylthiazol-2-yl)-2,5-diphenyltetrazolium bromide) solution (5 mg/mL) was added to each well and reacted for 4 hours in an incubator. […] After reacting in an incubator for 30 minutes, the formation of formazan was quantified using a microplate reader at an absorbance of 540 nm.

[9] = Cytotoxicity test by MTT assay, CHO-K1 normal cell line; assay type: cell-based; details: Chinese hamster, CHO-K1 cells (normal cell line)
Description: as §3

[10] = tested on: U937 (myeloid leukemia); assay: Cytotoxicity test by MTT assay, U937; assay type: cell-based, human; details: for IC50: Homo sapiens, U-937, U937, 48 h
Description: as §2

Row | SMILES | IC50 [1] [µM] | cytotoxicity compared with the reference drug sunitinib [1] | IC50 [2] [µM] | cytotoxicity compared with the reference drug sunitinib ([2]; PANC-1) | cytotoxicity compared with the reference drug sunitinib [3] | IC50 [3] [µM] | IC50 [4] [µM] | cytotoxicity compared with the reference drug sunitinib [5] | IC50 [5] [µM] | IC50 [6] [µM] | IC50 [7] [µM] | cytotoxicity compared with the reference drug sunitinib ([7]; MIA PaCa-2) | IC50 at 48 h [8] [µM] | IC50 at 48 h [9] [µM] | IC50 [10] [µM] | cytotoxicity at 30 µM [1] [%] | cytotoxicity at 30 µM [2] [%] | also measured
1 | CCNCCNC(=O)c1c(C)[nH]c(/C=C2\C(=O)Nc3nc(C)c(O)c(C)c32)c1C [Compound I-40, (Z)—N-(2-(Ethylamino)ethyl)-5-((5-hydroxy-4,6-dimethyl-2-oxo-1H-pyrrolo[2,3-b]pyridin-3(2H)-ylidene)methyl)-2,4-dimethyl-1H-pyrrole-3-carboxamide] | 1.32 | greater than or equal to that of the reference drug sunitinib | 1.02 | greater than or equal to that of the reference drug sunitinib | greater than or equal to that of the reference drug sunitinib | 1.47 | 1.45 | greater than or equal to that of the reference drug sunitinib | 0.26 | 1.47 | 1.58 | greater than or equal to that of the reference drug sunitinib | 19.1 | 40.7 |  |  |  | cytotoxicity compared with the reference drug sunitinib [4]: greater than or equal to that of the reference drug sunitinib; cytotoxicity compared with the reference drug sunitinib [6]: greater than or equal to that of the reference drug sunitinib
2 | CCN(CC)CCNC(=O)c1c(C)[nH]c(/C=C2\C(=O)Nc3ccc(F)cc32)c1C [Sunitinib, sunitinib, reference compound] |  |  |  |  |  | 6.09 | 4.89 |  | 5.88 | 6.98 | 8.51 |  | 7.3 |  | 6.98 |  |  | 
3 | CCN(CC)CCNC(=O)c1c(C)[nH]c(/C=C2\C(=O)Nc3nc(C)c(O)c(C)c32)c1C [Compound I-39, (Z)—N-(2-(Diethylamino)ethyl)-5-((5-hydroxy-4,6-dimethyl-2-oxo-1H-pyrrolo[2,3-b]pyridin-3(2H)-ylidene)methyl)-2,4-dimethyl-1H-pyrrole-3-carboxamide] | 6.09 | greater than or equal to that of the reference drug sunitinib | 15.1 | greater than or equal to that of the reference drug sunitinib | greater than or equal to that of the reference drug sunitinib | 5.31 | 20.9 | greater than or equal to that of the reference drug sunitinib | 2.88 | 19.9 | 7.94 | greater than or equal to that of the reference drug sunitinib | 40.7 | > 90 | 8.01 | 62.7 | 69.6 | 
4 | COc1ccc(Br)cc1/C=C1\C(=O)Nc2nc(C)c(O)c(C)c21 [Compound I-17, (Z)-3-(5-bromo-2-methoxybenzylidene)-5-hydroxy-4,6-dimethyl-1H-pyrrolo[2,3-b]pyridin-2(3H)-one] | 11 |  |  |  |  | 10.5 | 25.1 | greater than or equal to that of the reference drug sunitinib | 4.57 | 10.1 |  |  | 33 | 30.1 | 12.6 | 74.7 | 71.7 | 
5 | Cc1nc2c(c(C)c1O)/C(=C/c1[nH]c(C)c(C(=O)NC3CCCCC3)c1C)C(=O)N2 [Compound I-41, (Z)—N-Cyclohexyl-5-((5-hydroxy-4,6-dimethyl-2-oxo-1H-pyrrolo[2,3-b]pyridin-3(2H)-ylidene)methyl)-2,4-dimethyl-1H-pyrrole-3-carboxamide] | 6.9 | greater than or equal to that of the reference drug sunitinib | 5.88 | greater than or equal to that of the reference drug sunitinib | greater than or equal to that of the reference drug sunitinib | 3.52 | 4.47 | greater than or equal to that of the reference drug sunitinib | < 1 | 6.08 | 5.01 | greater than or equal to that of the reference drug sunitinib | 37.1 | 43.4 | 3.21 | 78.1 | 78.3 | cytotoxicity compared with the reference drug sunitinib [4]: greater than or equal to that of the reference drug sunitinib; cytotoxicity compared with the reference drug sunitinib ([10]; U937): greater than or equal to that of the reference drug sunitinib; cytotoxicity compared with the reference drug sunitinib [6]: greater than or equal to that of the reference drug sunitinib
6 | CCCCC/C=C1\C(=O)Nc2nc(C)c(O)c(C)c21 [Compound I-01, (Z)-3-Hexylidene-5-hydroxy-4,6-dimethyl-1H-pyrrolo[2,3-b]pyridin-2(3H)-one] | 13.8 |  |  |  |  | 12.6 | 12.9 |  | 11 | 7.6 |  |  | > 90 | 20.9 | 11.5 | 76.9 | 77.4 | 
7 | Cc1nc2c(c(C)c1O)/C(=C/c1ccc(N(C)C)cc1)C(=O)N2 [Compound I-18, (Z)-3-(4-(Dimethylamino)benzylidene)-5-hydroxy-4,6-dimethyl-1H-pyrrolo[2,3-b]pyridin-2(3H)-one] | 13.2 |  | 13.8 | greater than or equal to that of the reference drug sunitinib |  | 12.1 | 36.3 | greater than or equal to that of the reference drug sunitinib | 1.14 | 13.2 | 11.5 |  | > 90 | > 90 |  | 62.5 | 66.3 | 
8 | Nc1ccn([C@@H]2O[C@H](CO)[C@@H](O)C2(F)F)c(=O)n1 [Gemcitabine, reference compound] |  |  | > 1000 |  |  |  |  |  |  |  | > 1000 |  |  |  |  |  |  | resistance of the cell line to the drug ([2]; PANC-1): resistance to gemcitabine; resistance of the cell line to the drug ([7]; MIA PaCa-2): resistance to gemcitabine
9 | Cc1nc2c(c(C)c1O)/C(=C/C(c1ccccc1)c1ccccc1)C(=O)N2 [Compound I-19, (Z)-3-(2,2-Diphenylethylidene)-5-hydroxy-4,6-dimethyl-1H-pyrrolo[2,3-b]pyridin-2(3H)-one] | 6.37 | greater than or equal to that of the reference drug sunitinib | 7.41 | greater than or equal to that of the reference drug sunitinib |  | 22.9 | 11.5 |  | 8.77 | 31.5 |  |  | 26.2 | 30.1 | 16.6 | 78.1 | 81.4 | 
